Patent US10632195B2, “Pharmaceutical device for electric-field assisted administration of Tapentadol and method of administering Tapentadol with same” (Gruenenthal GmbH, priority 2012, dated 2020)

Key:
[1] = preliminary clinical trials: serum concentration and pain treating effect (visual analog scale); format: in vivo, human
Text: Low serum concentrations of Tapentadol suffice to show an effect in individuals that are relatively sensitive and higher serum concentrations of Tapentadol are needed to show an effect in persons that are relatively unsensitive.

[2] = combined electrophoretic and iontophoretic transdermal delivery from hydrogel formulation C in device according to FIG. 3 (examples 3a, 3b, 3c); format: in vitro ADME, mouse
Text: The rate of combined iontophoretic and electrophoretic transdermal delivery of aTapentadol hydrochloride containing hydrogel formulation has been investigated in examples 3a, 3b and 3c.
(§1) The linearity of the method was verified by calibration with an aqueous solution of Tapentadol hydrochloride.
The hydrogel formulation C (as described in example 2a) has been placed in a combined electrophoretic and iontophoretic device according to FIG. 3. The following components were used for preparing the inventive electrophoretic and iontophoretic device according to FIG. 3:
silver electrodes as pair of electrodes consisting of an active electrode (1a) and a counter electrode (2a) (silver gauze, 1024 mesh/cm^2, 0.12 wire diameter, 99.9% Ag, 18 mm diameter and 14 mm diameter, respectively), an additional silver ring electrode as an auxiliary electrode (silver gauze, 1024 mesh/cm^2, 0.12 wire diameter, 99.9% Ag, 20 mm outer diameter and 16 mm inner diameter, respectively), a hydrogel formulation (comprising 2.5%-wt. Klucel® HF and 0.1%-wt. sodium chloride, having a pH value of 7.0) as additional reservoir (15) being in contact with the silver ring electrode, a foam ring as (9) (Alveolit TA 1001 005 White, 95 kg/m^3, 24 mm outer diameter, 20 mm inner diameter), hydrogel formulation C as drug reservoir (3), teflon ring as barrier material (10) (thickness 1 mm, outer diameter 16 mm, inner diameter 11 mm and, thickness 0.5 mm, outer diameter 20 mm, inner diameter 16 mm, respectively), silicone adhesive Bio PSA-7 4502 as adhesive layer (4a), which has been in contact with a removable protective layer prior to use (transparent PETP foil manufactured by 3M®, 74 μm, with one-side fluorination, 24 mm diameter), acrylate adhesive DuroTAK 387-2054 as a second adhesive layer (8), a PET foil as surface layer (7) (Loparex PET foil, 75 μm, 105 g/m^2, 24 mm diameter).
Three wires were soldered to the electrodes and connected to a conventional current source as electric power source (6a) (Voltakraft® laboratory power supply DIGI 35).
A transdermal delivery experiment across mouse skin has been performed. In the first electrophoretic phase, only the silver electrodes as pair of electrodes consisting of an active electrode (1a) and a counter electrode (2a) were connected to the current supply. After application of 2.5 hours a single pulse having a pulse length of 60 s at a constant voltage of 3 V has been applied. After application of said pulse both electrodes were disconnected from the voltage generator. In the second iontophoretic phase following the electrophoretic phase, the counter electrode (2a) of the electrophoretically used pair of silver electrodes (1a and 2a) is used as an active electrode (1b) and the additional silver ring electrode is used a counter electrode (2b). A single pulse having a pulse length of 60 s at a constant voltage of 3 V has been applied in the iontophoretic phase.
The hydrogel formulation C (as described in example 2a) has been placed in a combined electrophoretic and iontophoretic device according to FIG. 3. The same components were used for preparing the inventive combined electrophoretic and iontophoretic device as described in example 3a.
Three transdermal delivery experiments (E-1, E2 and E3 as example 3b) to mouse skin have been performed in order to directly assess differences between a solely electrophoretic transdermal delivery and a combined electrophoretic and iontophoretic transdermal delivery as indicated in FIG. 13 and FIG. 14: […]

[3] = electrophoretic transdermal delivery from hydrogel formulations in device according to FIG. 1 (examples 2a, 2b, 2c; passive comparative example 2a); format: in vitro ADME, mouse; conditions: for total amount of Tapentadol permeated, electrophoretic delivery: after 24 hours, 60 s pulses after 1.5 and 16.5 hours
Text: The rate of electrophoretic transdermal delivery of three different exemplary Tapentadol hydrochloride containing hydrogel formulations A, B and C has been investigated in example 2a, 2b and 2c. Further, the rate of passive transdermal delivery of a corresponding Tapentadol hydrochloride containing hydrogel formulation has been investigated in a comparative experiment 2a.
as §1
The hydrogel formulation B has been placed in an electrophoretic transdermal delivery system according to FIG. 1. The following components were used for preparing the electrophoretic device according to FIG. 1:
silver electrodes as pair of electrodes consisting of an active electrode (1a) and a counter electrode (2a) (silver gauze, 1024 mesh/cm^2, 0.12 wire diameter, 99.9% Ag, 18 mm diameter), a foam ring (9) (Alveolit TA 1001 005 White, 95 kg/m^3, 22 mm outer diameter, 16 mm inner diameter), hydrogel formulation B as drug reservoir (3), a teflon ring as barrier material (10) (thickness 1 mm, outer diameter 16 mm, inner diameter 11 mm), silicone adhesive Bio PSA-7 4502 as adhesive layer (4a), which has been in contact with a removable protective layer prior to use (transparent PETP foil manufactured by 3M®, 74 μm, with one-side fluorination, 22 mm diameter), acrylate adhesive DuroTAK 387-2054 as a second adhesive layer (8), a PET foil as surface layer (7) (Loparex PET foil, 75 μm, 105 g/m^2, 22 mm diameter).
Two wires were soldered to the electrodes and connected to a conventional current source as electric power source (6a) (Voltakraft® laboratory power supply DIGI 35).
Transdermal delivery experiments across mouse skin have been performed after two short current pulses (2 V) have been applied for 2 s after 1.5 hour and for 2 s after 16.5 hours.
For comparison, the hydrogel formulation B or A has been placed in an electrophoretic transdermal delivery system according to FIG. 1 and passive transdermal delivery experiments to mouse skin have been performed, i.e. no electric current has been applied to these systems (passive control experiments). This experiment has been performed twice for formulation B (compB-1 and compB-2) and once in case of formulation A (compA) (comparative example 2a) as indicated in FIG. 4 and FIG. 5.
The hydrogel formulation B has been placed in an electrophoretic transdermal delivery system according to FIG. 1 comprising the same components as used for example 2a and comparative example 2a.
Transdermal delivery experiments across mouse skin have been performed after two current pulses have been applied. […]

[4] = HPLC purity of Tapentadol in exhausted hydrogel after electric-field-assisted administration (example 4); format: physicochemical
[5] = exhausted hydrogel of F-3 of example 3c, HPLC

SMILES: CC[C@@H](c1cccc(O)c1)[C@@H](C)CN(C)C [Tapentadol, (−)-(1R,2R)-3-(3-dimethyl-amino-1-ethyl-2-methyl-propyl)-phenol]
- visual analog scale (VAS) in a population mean ([1]; at serum concentration of about 5 ng·ml-1): approximately −2 mm
- visual analog scale (VAS) in a population mean ([1]; at serum concentration of about 300 ng·ml-1): approximately −15 mm
- fall-off of the drug flux ([2]; E-2, after 18 hours compared to the maximum at about 6 hours): about 50%
- total amount of Tapentadol permeated, combined electrophoretic and iontophoretic delivery ([2]; after 24 hours, D-1: formulation C, 60 s 3 V electrophoretic pulse after 2.5 hours then 60 s 3 V iontophoretic pulse, mouse skin probably injured): 430 μg/cm^2
- total amount of Tapentadol permeated, electrophoretic delivery ([2]; after 24 hours, E-2: formulation C, four 60 s 3 V electrophoretic pulses (0, 15.75, 18, 20.75 h)): more than 700 μg/cm^2
- total amount of Tapentadol permeated, combined electrophoretic and iontophoretic delivery ([2]; after 24 hours, E-3: formulation C, four 60 s 3 V electrophoretic pulses (0, 15.75, 18, 20.75 h) each followed by 9 V iontophoretic pulse): more than 800 μg/cm^2
- total amount of Tapentadol permeated, combined electrophoretic and iontophoretic delivery ([2]; after 24 hours, F-3: formulation C, four 60 s 4 V electrophoretic pulses (0, 2.5, 5.5, 21.5 h) each followed by 9 V iontophoretic pulse): about 1500 μg/cm^2
- total amount of Tapentadol permeated, electrophoretic delivery ([3]; B-5: formulation B, 2 V): more than 300 μg/cm^2
- total amount of Tapentadol permeated, electrophoretic delivery ([3]; C-3: formulation C, 5 V): 670 μg/cm^2
- increase of cumulative skin permeation by electrophoresis versus passive delivery ([3]; hydrogel formulation B, example 2a (2 V pulses of 2 s after 1.5 and 16.5 hours) vs comparative example 2a, from FIG. 4): 5-10 fold
- Tapentadol remaining within the transdermal delivery system ([3]; over 24 hours of administration, examples 2a, 2b and 2c): about 90 wt.-%
- electrically induced degradation of Tapentadol ([4]; during electric-field administration of the device): does not induce a significant degradation
- Tapentadol content [4, 5]: 95.3%
- sum of impurities [4, 5]: 4.7%
